Drawing on patent publication US10202360B2 (CELGENE QUANTICEL RESEARCH, INC., priority 2016, dated 2019), this text covers IC50 for 34 compounds.

Sequence of CREBBP (Q92793 1081-1197): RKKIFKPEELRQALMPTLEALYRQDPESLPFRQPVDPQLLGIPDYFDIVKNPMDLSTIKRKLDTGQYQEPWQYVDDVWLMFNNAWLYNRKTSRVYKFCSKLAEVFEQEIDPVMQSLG

The experiment has as its target CREBBP (Homo sapiens (Human), UniProt Q92793). The experiment in a line: In vitro enzyme inhibition assay - CREBBP inhibition (AlphaScreen, biotinylated H4-tetraacetyl peptide). The format is binding. As to conditions: Table 28; AlphaScreen, H4-tetraacetyl peptide. An outline of the steps: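 His-tagged CREBBP expressed in E. coli (50 nM final) incubated with biotinylated H4K5/8/12/16(Ac) peptide (20 nM final) in HEPES pH 7.3 buffer, 0.4% DMSO, 20 min at room temperature.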
(In Alpha technology, singlet oxygen from a donor bead excites a nearby acceptor bead.)
In the case of `CCCCNc1cc(-c2ccc(=O)n(C)c2)nc(Oc2c(C)cccc2C#N)n1` [Example 316, 2-[4-Butylamino-6-(1-methyl-6-oxo-1,6-dihydro-pyridin-3-yl)-pyrimidin-2-yloxy]-3-methyl-benzonitrile], the IC50 – broadly, the concentration that inhibits the measured activity by half – was below 500 nM.

In turn, `CCC[C@@H](C)Nc1cc(-c2ccc(=O)n(C)c2)nc(Oc2c(C)cccc2C#N)n1` [Example 317, (R)-3-Methyl-2-[4-(1-methyl-butylamino)-6-(1-methyl-6-oxo-1,6-dihydro-pyridin-3-yl)-pyrimidin-2-yloxy]-benzonitrile] returned an IC50 below 500 nM.

`Cc1cccc(C#N)c1Oc1nc(N[C@H](C)c2ccccc2)cc(-c2ccc(=O)n(C)c2)n1` [Example 318, (R)-3-Methyl-2-[4-(1-methyl-6-oxo-1,6-dihydro-pyridin-3-yl)-6-(1-phenyl-ethylamino)-pyrimidin-2-yloxy]-benzonitrile] came in with an IC50 below 500 nM.

In turn, `Cc1cccc(C#N)c1Oc1nc(NCc2ccccn2)cc(-c2ccc(=O)n(C)c2)n1` [Example 319, 3-Methyl-2-{4-(1-methyl-6-oxo-1,6-dihydro-pyridin-3-yl)-6-[(pyridin-2-ylmethyl)-amino]-pyrimidin-2-yloxy}-benzonitrile] returned an IC50 below 500 nM.

`Cc1cccc(C#N)c1Oc1nc(NCc2ccccc2)cc(-c2ccc(=O)n(C)c2)n1` [Example 320, 2-[4-Benzylamino-6-(1-methyl-6-oxo-1,6-dihydro-pyridin-3-yl)-pyrimidin-2-yloxy]-3-methyl-benzonitrile] came in with an IC50 below 500 nM.

On to `CCC[C@H](C)Nc1cc(-c2ccc(=O)n(C)c2)nc(Oc2c(C)cccc2C#N)n1` [Example 321, (S)-3-Methyl-2-[4-(1-methyl-butylamino)-6-(1-methyl-6-oxo-1,6-dihydro-pyridin-3-yl)-pyrimidin-2-yloxy]-benzonitrile], for which the 50% inhibitory concentration (IC50) was below 500 nM.

For the compound `Cc1cccc(C#N)c1Oc1nc(N[C@@H](C)c2ccccc2)cc(-c2ccc(=O)n(C)c2)n1` [Example 322, (S)-3-Methyl-2-[4-(1-methyl-6-oxo-1,6-dihydro-pyridin-3-yl)-6-(1-phenyl-ethylamino)-pyrimidin-2-yloxy]-benzonitrile], the IC50 was below 500 nM.

Take `Cc1cccc(C#N)c1Oc1nc(NCc2cccnc2)cc(-c2ccc(=O)n(C)c2)n1` [Example 323, 3-Methyl-2-{4-(1-methyl-6-oxo-1,6-dihydro-pyridin-3-yl)-6-[(pyridin-3-ylmethyl)-amino]-pyrimidin-2-yloxy}-benzonitrile]: the IC50 is below 500 nM.

`COc1nc(NCc2ccccc2)cc(-c2ccc(=O)n(C)c2)n1` [Example 324, 5-(6-Benzylamino-2-methoxy-pyrimidin-4-yl)-1-methyl-1H-pyridin-2-one]: the IC50 was below 500 nM.

Regarding `CCCCNc1cc(-c2ccc(=O)n(C)c2)nc(OC)n1` [Example 325, 5-(6-Butylamino-2-methoxy-pyrimidin-4-yl)-1-methyl-1H-pyridin-2-one], the IC50 was 500 to 5000 nM.

In turn, `CCCC(C)Nc1cc(-c2ccc(=O)n(C)c2)nc(OC)n1` (stereo not shown) [Example 326, 5-[2-Methoxy-6-(1-methyl-butylamino)-pyrimidin-4-yl]-1-methyl-1H-pyridin-2-one] returned an IC50 of 500 to 5000 nM.

Turning to `COc1nc(NC(C)c2ccccc2)cc(-c2ccc(=O)n(C)c2)n1` (stereo not shown) [Example 327, 5-[2-Methoxy-6-(1-phenyl-ethylamino)-pyrimidin-4-yl]-1-methyl-1H-pyridin-2-one], the 50% inhibitory concentration (IC50) is below 500 nM.

Take `COc1nc(NCc2ccccn2)cc(-c2ccc(=O)n(C)c2)n1` [Example 328, 5-{2-Methoxy-6-[(pyridin-2-ylmethyl)-amino]-pyrimidin-4-yl}-1-methyl-1H-pyridin-2-one]: the IC50 is below 500 nM.

Consider `COc1nc(NCCc2ccccc2)cc(-c2ccc(=O)n(C)c2)n1` [Example 329, 5-(2-Methoxy-6-phenethylamino-pyrimidin-4-yl)-1-methyl-1H-pyridin-2-one], for which the IC50 was below 500 nM.

In turn, `COc1nc(NCc2cccnc2)cc(-c2ccc(=O)n(C)c2)n1` [Example 330, 5-{2-Methoxy-6-[(pyridin-3-ylmethyl)-amino]-pyrimidin-4-yl}-1-methyl-1H-pyridin-2-one] had an IC50 below 500 nM.

As for `COc1nc(NCC2CCCc3ccccc32)cc(-c2ccc(=O)n(C)c2)n1` (stereo not shown) [Example 331, 5-{2-Methoxy-6-[(1,2,3,4-tetrahydro-naphthalen-1-ylmethyl)-amino]-pyrimidin-4-yl}-1-methyl-1H-pyridin-2-one], the IC50 is below 500 nM.

In turn, `Cc1cccc(F)c1Oc1nc(N)cc(-c2ccc(=O)n(C)c2)n1` [Example 332, 5-[6-Amino-2-(2-fluoro-6-methyl-phenoxy)-pyrimidin-4-yl]-1-methyl-1H-pyridin-2-one] registered an IC50 below 500 nM.

`Cc1cccc(Cl)c1Oc1nc(N)cc(-c2ccc(=O)n(C)c2)n1` [Example 333, 5-[6-Amino-2-(2-chloro-6-methyl-phenoxy)-pyrimidin-4-yl]-1-methyl-1H-pyridin-2-one] displayed a half-inhibitory concentration (IC50) below 500 nM.

Take `Cc1cccc(Cl)c1Oc1nc(N)cc(-c2cc(C)c(=O)n(C)c2)n1` [Example 334, 5-[6-Amino-2-(2-chloro-6-methyl-phenoxy)-pyrimidin-4-yl]-1,3-dimethyl-1H-pyridin-2-one]: the IC50 was below 500 nM.

`Cc1cccc(C)c1Oc1nc(C#N)cc(-c2cc(C)c(=O)n(C)c2)n1` [Example 335, 6-(1,5-dimethyl-6-oxo(3-hydropyridyl))-2-(2,6-dimethylphenoxy)pyrimidine-4-carbonitrile] yielded an IC50 below 500 nM.

The compound `CCCS(=O)(=O)Nc1cc(-c2cc(C)c(=O)n(C)c2)nn1C` [Example 336, Propane-1-sulfonic acid [5-(1,5-dimethyl-6-oxo-1,6-dihydro-pyridin-3-yl)-2-methyl-2H-pyrazol-3-yl]-amide] had an IC50 of 500 to 5000 nM.

`CCCCS(=O)(=O)Nc1cc(-c2ccc(=O)n(C)c2)nc(Oc2c(F)cccc2CC)n1` [Example 337, N-(2-(2-ethyl-6-fluorophenoxy)-6-(1-methyl-6-oxo-1,6-dihydropyridin-3-yl)pyrimidin-4-yl)butane-1-sulfonamide] displayed an IC50 below 500 nM.

Take `CCc1cccc(F)c1Oc1nc(NS(=O)(=O)C(C)CC)cc(-c2ccc(=O)n(C)c2)n1` (stereo not shown) [Example 338, N-(2-(2-ethyl-6-fluorophenoxy)-6-(1-methyl-6-oxo-1,6-dihydropyridin-3-yl)pyrimidin-4-yl)butane-2-sulfonamide]: the IC50 is below 500 nM.

`CCCS(=O)(=O)Nc1cc(-c2ccc(=O)n(C)c2)nc(Oc2c(F)cccc2CC)n1` [Example 339, N-(2-(2-ethyl-6-fluorophenoxy)-6-(1-methyl-6-oxo-1,6-dihydropyridin-3-yl)pyrimidin-4-yl)propane-1-sulfonamide] showed an IC50 below 500 nM.

`CC(C)S(=O)(=O)Nc1cc(-c2ccc(=O)n(C)c2)nc(Oc2c(F)cccc2F)n1` [Example 340, N-(2-(2,6-difluorophenoxy)-6-(1-methyl-6-oxo-1,6-dihydropyridin-3-yl)pyrimidin-4-yl)propane-2-sulfonamide] had an IC50 below 500 nM.

For `CCCS(=O)(=O)Nc1cc(-c2ccc(=O)n(C)c2)nc(Oc2c(F)cccc2F)n1` [Example 341, N-(2-(2,6-difluorophenoxy)-6-(1-methyl-6-oxo-1,6-dihydropyridin-3-yl)pyrimidin-4-yl)propane-1-sulfonamide], the IC50 was below 500 nM.

On to `CCCCS(=O)(=O)Nc1cc(-c2ccc(=O)n(C)c2)nc(Oc2c(F)cccc2F)n1` [Example 342, N-(2-(2,6-difluorophenoxy)-6-(1-methyl-6-oxo-1,6-dihydropyridin-3-yl)pyrimidin-4-yl)butane-1-sulfonamide], for which the IC50 was below 500 nM.

Compound `CCCCS(=O)(=O)Nc1cc(-c2ccc(=O)n(C)c2)nc(Oc2c(C)cc(F)cc2F)n1` [Example 343, N-(2-(2,4-difluoro-6-methylphenoxy)-6-(1-methyl-6-oxo-1,6-dihydropyridin-3-yl)pyrimidin-4-yl)butane-1-sulfonamide] showed an IC50 below 500 nM.

`CCCS(=O)(=O)Nc1cc(-c2ccc(=O)n(C)c2)nc(Oc2c(C)cc(F)cc2F)n1` [Example 344, N-(2-(2,4-difluoro-6-methylphenoxy)-6-(1-methyl-6-oxo-1,6-dihydropyridin-3-yl)pyrimidin-4-yl)propane-1-sulfonamide] came in with an IC50 below 500 nM.

With `CCC(C)S(=O)(=O)Nc1cc(-c2ccc(=O)n(C)c2)nc(Oc2c(C)cc(F)cc2F)n1` (stereo not shown) [Example 345, N-(2-(2,4-difluoro-6-methylphenoxy)-6-(1-methyl-6-oxo-1,6-dihydropyridin-3-yl)pyrimidin-4-yl)butane-2-sulfonamide], the IC50 is below 500 nM.

For `Cc1cc(F)cc(F)c1Oc1nc(NS(=O)(=O)C(C)C)cc(-c2ccc(=O)n(C)c2)n1` [Example 346, N-(2-(2,4-difluoro-6-methylphenoxy)-6-(1-methyl-6-oxo-1,6-dihydropyridin-3-yl)pyrimidin-4-yl)propane-2-sulfonamide], the IC50 is below 500 nM.

The compound `CCCCS(=O)(=O)Nc1cc(-c2ccc(=O)n(C)c2)nc(Oc2c(C)ccc(F)c2F)n1` [Example 347, N-(2-(2,3-difluoro-6-methylphenoxy)-6-(1-methyl-6-oxo-1,6-dihydropyridin-3-yl)pyrimidin-4-yl)butane-1-sulfonamide] yielded a half-inhibitory concentration (IC50) below 500 nM.

`CCCS(=O)(=O)Nc1cc(-c2ccc(=O)n(C)c2)nc(Oc2c(C)ccc(F)c2F)n1` [Example 348, N-(2-(2,3-difluoro-6-methylphenoxy)-6-(1-methyl-6-oxo-1,6-dihydropyridin-3-yl)pyrimidin-4-yl)propane-1-sulfonamide] came in with an IC50 below 500 nM.

For `CCC(C)S(=O)(=O)Nc1cc(-c2ccc(=O)n(C)c2)nc(Oc2c(C)ccc(F)c2F)n1` (stereo not shown) [Example 349, N-(2-(2,3-difluoro-6-methylphenoxy)-6-(1-methyl-6-oxo-1,6-dihydropyridin-3-yl)pyrimidin-4-yl)butane-2-sulfonamide], the IC50 is below 500 nM.
